This note sets out measurements from patent US11684616B2, “Azalactam compounds as HPK1 inhibitors” (PFIZER INC., priority 2020, dated 2023).

pIC50, pKi: −log10 of the molar value.

Experiment [1] concerns the target Human recombinant full-length GST-tagged RPS6KA2 (RSK3) (Homo sapiens (Human), UniProt Q15349). In words: Biochemical selectivity kinase assay (Z'-LYTE FRET), RSK3. The following applies: for pIC50: 10 μM ATP (~Km); for RSK3 IC50/HPK1 Ki: ratio of the RSK3 IC50 to the HPK1 Ki. The text has this: (§1) Biochemical Selectivity Kinase Assay.
(§2) The dose response curve was curve fit to model number 205 (sigmoidal dose-response model). A ratio of the PRKD2 IC50 to the HPK1 Ki and a ratio of the RSK3 IC50 to the HPK1 Ki, is provided in the respective columns adjacent to the columns for PRKD2 IC50 and RSK3 IC50.

Experiment [2] has as its target Human recombinant full-length GST-tagged PRKD2 (PKD2) (Homo sapiens (Human), UniProt Q9BZL6). In words: Biochemical selectivity kinase assay (Z'-LYTE FRET), PRKD2. The settings on record: for pIC50: 25 μM ATP (~Km); for PRKD2 IC50/HPK1 Ki: ratio of the PRKD2 IC50 to the HPK1 Ki.
Description: as §1, §2

Experiment [3] has as its target human full-length autophosphorylated recombinant HPK1 (Homo sapiens (Human), UniProt Q92918). In words: HPK1 biochemical enzyme assay (chelation-enhanced fluorescence, CHEF). The following applies: 0.5 nM HPK1, 45 μM ATP, Morrison fit. A digest of the protocol: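 Autophosphorylated full-length human HPK1 from Sf21 cells, His-tag removed by TEV, residual N-terminal Gly-Ser. Activity measured with a C-Sox fluorescent peptide substrate (CHEF); initial velocities followed at λex 360/λem 500 nm, 30 °C for 15 min.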

The subject of experiment [4] is Phospho-SLP-76 (Ser376) in Jurkat cells. In words: Phospho-SLP-76 (Ser376) HTRF assay in anti-CD3 stimulated Jurkat cells. Format: cell-based. The following applies: Homo sapiens, Jurkat, 30 min pre-treatment, anti-CD3 stimulation 15 min, read-out: pSLP76 IC50. A digest of the protocol:
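Jurkat cells pre-treated 30 min with compound (11-point 3-fold series, final 10 μM to 0.1 nM, 0.1% DMSO), then stimulated 15 min at 37° C with 200 μg/mL F(ab)2-complexed anti-CD3 (UCTH1). Lysate phospho-SLP-76 read by HTRF sandwich after overnight RT incubation; IC50 from four-parameter fit.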

Sequence of human full-length autophosphorylated recombinant HPK1 (Q92918 other isoform, or with tags, fused parts or gaps): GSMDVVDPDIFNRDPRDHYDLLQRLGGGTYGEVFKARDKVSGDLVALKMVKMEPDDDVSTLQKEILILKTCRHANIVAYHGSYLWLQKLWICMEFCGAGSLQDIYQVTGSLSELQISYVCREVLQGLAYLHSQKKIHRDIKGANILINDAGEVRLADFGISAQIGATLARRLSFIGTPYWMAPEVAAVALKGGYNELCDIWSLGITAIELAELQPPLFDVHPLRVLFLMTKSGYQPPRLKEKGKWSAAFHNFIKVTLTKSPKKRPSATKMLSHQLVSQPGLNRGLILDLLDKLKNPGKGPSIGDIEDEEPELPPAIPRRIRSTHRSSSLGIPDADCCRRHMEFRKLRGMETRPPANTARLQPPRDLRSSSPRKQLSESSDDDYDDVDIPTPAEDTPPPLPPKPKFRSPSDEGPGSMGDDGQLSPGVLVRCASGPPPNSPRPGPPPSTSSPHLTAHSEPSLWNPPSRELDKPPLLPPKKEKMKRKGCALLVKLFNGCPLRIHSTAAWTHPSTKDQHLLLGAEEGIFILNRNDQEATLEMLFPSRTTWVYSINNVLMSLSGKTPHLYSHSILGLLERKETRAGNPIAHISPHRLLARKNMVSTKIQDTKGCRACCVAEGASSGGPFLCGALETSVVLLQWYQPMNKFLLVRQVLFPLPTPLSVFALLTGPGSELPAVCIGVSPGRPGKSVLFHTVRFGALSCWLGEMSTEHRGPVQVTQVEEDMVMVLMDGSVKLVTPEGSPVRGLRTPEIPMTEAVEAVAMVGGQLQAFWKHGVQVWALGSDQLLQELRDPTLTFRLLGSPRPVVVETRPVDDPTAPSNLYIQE
Sequence of Human recombinant full-length GST-tagged RPS6KA2 (RSK3) (Q15349 whole entry): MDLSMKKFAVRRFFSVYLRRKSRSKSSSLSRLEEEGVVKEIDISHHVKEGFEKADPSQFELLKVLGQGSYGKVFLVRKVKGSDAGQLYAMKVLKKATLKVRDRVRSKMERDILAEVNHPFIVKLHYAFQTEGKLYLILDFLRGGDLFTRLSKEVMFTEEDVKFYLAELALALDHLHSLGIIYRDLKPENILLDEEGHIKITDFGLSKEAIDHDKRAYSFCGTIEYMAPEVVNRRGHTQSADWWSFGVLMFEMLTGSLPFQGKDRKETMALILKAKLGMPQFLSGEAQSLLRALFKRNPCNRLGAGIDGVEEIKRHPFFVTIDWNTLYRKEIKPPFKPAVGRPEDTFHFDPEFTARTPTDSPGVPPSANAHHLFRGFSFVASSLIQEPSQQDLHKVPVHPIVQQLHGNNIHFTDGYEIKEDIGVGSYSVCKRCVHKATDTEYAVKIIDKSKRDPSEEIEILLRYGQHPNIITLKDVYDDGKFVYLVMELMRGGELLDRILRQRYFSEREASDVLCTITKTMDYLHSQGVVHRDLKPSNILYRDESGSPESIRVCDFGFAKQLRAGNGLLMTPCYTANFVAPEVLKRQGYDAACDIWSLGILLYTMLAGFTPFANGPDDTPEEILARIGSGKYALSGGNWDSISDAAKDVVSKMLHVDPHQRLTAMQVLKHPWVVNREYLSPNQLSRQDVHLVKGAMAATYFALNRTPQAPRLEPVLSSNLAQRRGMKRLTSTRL
Sequence of Human recombinant full-length GST-tagged PRKD2 (PKD2) (Q9BZL6 whole entry): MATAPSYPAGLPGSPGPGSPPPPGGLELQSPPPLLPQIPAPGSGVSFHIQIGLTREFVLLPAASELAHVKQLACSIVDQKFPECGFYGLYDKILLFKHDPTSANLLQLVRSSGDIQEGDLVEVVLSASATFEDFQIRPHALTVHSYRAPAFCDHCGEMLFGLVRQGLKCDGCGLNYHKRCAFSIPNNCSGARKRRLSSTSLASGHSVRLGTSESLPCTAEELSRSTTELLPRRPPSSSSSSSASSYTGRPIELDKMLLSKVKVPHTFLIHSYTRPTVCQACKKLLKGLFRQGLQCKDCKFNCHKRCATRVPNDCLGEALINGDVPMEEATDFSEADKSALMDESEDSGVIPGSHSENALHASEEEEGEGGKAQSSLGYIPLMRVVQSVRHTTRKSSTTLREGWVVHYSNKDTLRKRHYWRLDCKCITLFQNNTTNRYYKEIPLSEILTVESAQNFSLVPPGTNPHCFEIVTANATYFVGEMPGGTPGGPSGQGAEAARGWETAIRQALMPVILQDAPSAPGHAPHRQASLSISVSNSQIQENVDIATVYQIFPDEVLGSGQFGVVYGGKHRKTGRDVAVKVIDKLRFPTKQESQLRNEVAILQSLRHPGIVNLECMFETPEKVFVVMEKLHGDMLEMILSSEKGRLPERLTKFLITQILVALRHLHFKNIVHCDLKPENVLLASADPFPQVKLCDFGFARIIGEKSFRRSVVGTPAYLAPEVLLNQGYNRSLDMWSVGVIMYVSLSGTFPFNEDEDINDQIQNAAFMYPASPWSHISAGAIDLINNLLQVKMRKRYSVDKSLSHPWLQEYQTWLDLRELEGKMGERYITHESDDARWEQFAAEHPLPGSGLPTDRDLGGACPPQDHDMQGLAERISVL

Broadly, the pIC50 is the negative decadic logarithm of the IC50, by convention in mol/L. In general, pKi refers to the Ki on a negative log10 scale, so that one unit is a factor of ten. `CC[C@H]1CCc2nnc(-c3cccc(N4Cc5c(cc(N(C)C(C)C)nc5[C@@H](C)N)C4=O)n3)n21` [Example 4, 4-[(1R)-1-aminoethyl]-2-{6-[(5S)-5-ethyl-6,7-dihydro-5H-pyrrolo[2,1-c][1,2,4]triazol-3-yl]pyridin-2-yl}-6-[methyl(propan-2-yl)amino]-2,3-dihydro-1H-pyrrolo[3,4-c]pyridin-1-one]: the pIC50 in experiment [1] was 7.59; in experiment [2], 6.66; in experiment [4] it was 7.44. For the same molecule, in experiment [1], the “RSK3 IC50/HPK1 Ki” value is listed as over 520. For the same molecule, in experiment [2], the “PRKD2 IC50/HPK1 Ki” value is given as over 4304. Moreover, in experiment [3], the pKi is over 10.30.
On to `CCn1cnnc1-c1cccc(N2Cc3c(cc(N4CCC[C@H]4C)nc3C(C)(C)N)C2=O)n1` [Example 100, 4-(2-aminopropan-2-yl)-2-[6-(4-ethyl-4H-1,2,4-triazol-3-yl)pyridin-2-yl]-6-[(2R)-2-methylpyrrolidin-1-yl]-2,3-dihydro-1H-pyrrolo[3,4-c]pyridin-1-one], for which, in experiment [1], the pIC50 was 7.81 and the “RSK3 IC50/HPK1 Ki” value was over 320. For the same molecule, in experiment [2], the pIC50 was 7.29 and the “PRKD2 IC50/HPK1 Ki” value is over 1020. In addition, the pKi in experiment [3] was over 10.30. Besides, in experiment [4], the pIC50 is 7.41.
Take `CC[C@H]1CCc2nnc(-c3cccc(N4Cc5c(cc(N6CCC[C@H]6C)nc5CNC)C4=O)n3)n21` [Example 200, 2-{6-[(5S)-5-ethyl-6,7-dihydro-5H-pyrrolo[2,1-c][1,2,4]triazol-3-yl]pyridin-2-yl}-4-[(methylamino)methyl]-6-[(2R)-2-methylpyrrolidin-1-yl]-2,3-dihydro-1H-pyrrolo[3,4-c]pyridin-1-one]: the pIC50 in experiment [1] is 8.00; in experiment [2], 8.10; in experiment [4] it was 7.80. Further, in experiment [1], the “RSK3 IC50/HPK1 Ki” value is listed as over 200. The “PRKD2 IC50/HPK1 Ki” value in experiment [2] was over 160. Also, the pKi in experiment [3] is over 10.30.
On to `CC[C@H]1CCc2nnc(-c3cccc(N4Cc5c(cc(N(C)C(C)C)nc5CNC)C4=O)n3)n21` [Example 201, 2-{6-[(5S)-5-ethyl-6,7-dihydro-5H-pyrrolo[2,1-c][1,2,4]triazol-3-yl]pyridin-2-yl}-4-[(methylamino)methyl]-6-[methyl(propan-2-yl)amino]-2,3-dihydro-1H-pyrrolo[3,4-c]pyridin-1-one], for which, in experiment [1], the pIC50 is 8.17 and the “RSK3 IC50/HPK1 Ki” value is over 134. Moreover, in experiment [2], the pIC50 is 8.27 and the “PRKD2 IC50/HPK1 Ki” value is over 108. Moreover, the pKi in experiment [3] was over 10.30. The pIC50 in experiment [4] was 7.43.
Consider `CNCc1nc(N2CCC[C@H]2C)cc2c1CN(c1cccc(-c3nnc4n3[C@@H](CF)CC4)n1)C2=O` [Example 202, 2-{6-[(5R)-5-(fluoromethyl)-6,7-dihydro-5H-pyrrolo[2,1-c][1,2,4]triazol-3-yl]pyridin-2-yl}-4-[(methylamino)methyl]-6-[(2R)-2-methylpyrrolidin-1-yl]-2,3-dihydro-1H-pyrrolo[3,4-c]pyridin-1-one], for which, in experiment [1], the pIC50 is 7.40 and the “RSK3 IC50/HPK1 Ki” value is listed as 667. Moreover, in experiment [2], the pIC50 is 8.18 and the “PRKD2 IC50/HPK1 Ki” value is 108. Besides, the pKi in experiment [3] was 10.22. In addition, in experiment [4], the pIC50 is 7.60.
